Test results as given in US11753433B2, “Methods of synthesizing substituted purine compounds” (Epizyme, Inc., priority 2013, dated 2023).

Legend:
Assay type in all cases: physicochemical
[1] = Slurry experiments using Form A and Form B (relative stability)
Protocol: The relative stability between Form A and Form B was investigated by slurry experiments in ACN (containing less than 0.3 wt % water), ACN/H2O (v/v, 3; 1), and H2O at room temperature and 50° C. In general, about 10-30 mg Form A was added to a 5-ml glass vial with 0.5 ml corresponding solvents to get suspensions at room temperature and 50° C., respectively. Then 10-30 mg Form B was added to the suspensions which were kept stirring for 24 h. The water activity was calculated using the UNIFAC model.

[2] = Slurry experiments using Form B and Form C (relative stability); conditions: RT
Protocol: The relative stability between Form B and Form C was investigated as a function of water activity at room temperature using ACN/H2O. In general, about 10-30 mg Form B was added to a 5-ml glass vial with 0.5 ml corresponding solvents to get suspensions at room temperature. Then 10-30 mg Form C was added to the suspensions which were kept stirring for 24 h. The water activity was calculated using the UNIFAC model.

[3] = Equilibrium solubility in aqueous media; conditions: for solubility at 24 h: 25 °C, thermodynamic from solid; for Remaining Solid: XRPD
Protocol: (§1) Approximately 10 mg of Form B was weighed into a 1-ml glass vial followed by addition of 0.5 ml relevant media. Each sample was continuously stirred using a magnetic stir bar at 25° C. for 24 h. The suspension was then filtered using a nylon membrane with a pore diameter of 0.22 μm. The filtrates were diluted for HPLC analysis and final pH was measured. The solid residue of each sample was collected for XRPD analysis.
The solubilities of Form B in water and five different pH values at 25° C. were determined by HPLC after 24 h equilibration. Solubility data for Form B was obtained across the physiological pH by using buffer solutions from pH 2 to pH 10.
Preparation of pH Buffers • pH 2: 0.01N HCl solution. Dilute 1 ml of 1 N HCl with H2O up to a total volume of 100 ml. Measure the pH and precisely adjust to pH=2.00 using a few microliters of 1N HCl or 1N NaOH. • pH 4: 50 mM Na citrate buffer. Prepare a 50 mM citric acid solution by diluting 10 ml of 1N citric acid with H2O up to a total volume of 200 ml. Slowly add solid NaOH under stirring to increase the pH to 3.8-4.0 and use a few microliters of 1N NaOH for final adjustment to pH 4.00. • pH 6: 50 mM Na citrate buffer. Use the same procedure as the pH 4 buffer and adjust to pH=6.00 • pH 8: 50 mM Na phosphate buffer. Prepare a 50 mM NaH2PO4 solution by dissolving 6.00 g NaH2PO4 in 1 L of H2O and a 50 mM Na2HPO4 solution by dissolving 7.10 g in 1 L of H2O. Mix 10 ml of the NaH2PO4 solution with 140 ml of the Na2HPO4 solution in a beaker. Adjust to pH 8.00 by addition of small amounts of 50 mM NaH2PO4 or Na2HPO4 solution. • pH 10: 50 mM Na carbonate buffer. Prepare a 50 mM carbonate solution by dissolving 840 mg of sodium bicarbonate (NaHCO3) in about 180 ml of H2O. Slowly adjust the pH to 10.0±0.1 by addition of 1N NaOH. Add water to reach the total volume of 200 ml and adjust to pH 10.00 with 1N NaOH.

[4] = Equilibrium solubility in organic solvents; conditions: RT; for solubility at 24 h: organic solvent or mixture, thermodynamic from solid
Protocol: as §1, with “analysis. The solubility of Form B was also determined in commonly used organic solvents (diluents or HPLC mobile phase). The solubility data summarized in Table 10 indicates Form B is quite soluble in MeOH, EtOH, and IPA.” for “analysis.”

[5] = 0.01N HCl, pH (initial) 2.0, RT, 24 h
[6] = 50 mM Na carbonate buffer, pH (initial) 10.0, RT, 24 h
[7] = 50 mM Na phosphate buffer, pH (initial) 8.0, RT, 24 h
[8] = 50 mM sodium citrate, pH (initial) 4.0, RT, 24 h
[9] = 50 mM sodium citrate, pH (initial) 6.0, RT, 24 h

## CC(C)N(C[C@H]1O[C@@H](n2cnc3c(N)ncnc32)[C@H](O)[C@@H]1O)[C@H]1C[C@@H](CCc2nc3cc(C(C)(C)C)ccc3[nH]2)C1 [Form B, (2R,3R,4S,5R)-2-(6-amino-9H-purin-9-yl)-5-((((1r,3S)-3-(2-(5-(tert-butyl)-1H-benzo[d]imidazol-2-yl)ethyl)cyclobutyl)(isopropyl)amino)methyl)tetrahydrofuran-3,4-diol trihydrate]
[1]; 50° C.
  water activity at which Form B is thermodynamically more stable than Form A: ≥ 0.08
[1]; RT
  water activity at which Form B is thermodynamically more stable than Form A: ≥ 0.09
[2]
  water activity at which Form B is thermodynamically more stable than Form C: ≥ 0.30
[3]; 0.01N HCl solution, pH 2, simulated gastric fluid, 0.01N HCl, pH (initial) 2.0, RT, 24 h
  solubility at 24 h: 3400 µg/mL
[3]; [5]
  pH (final): 5.5
  Remaining Solid: Form B
[3]; [6]
  pH (final): 10.0
  Remaining Solid: Form B
[3]; 50 mM Na carbonate buffer, pH (initial) 10.0, RT, 24 h, LOD 0.1 μg/ml
  Solubility: <LOD^
[3]; [7]
  pH (final): 8.0
  Remaining Solid: Form B
[3]; 50 mM Na phosphate buffer, pH (initial) 8.0, RT, 24 h, LOD 0.1 μg/ml
  Solubility: <LOD^§
[3]; 50 mM sodium citrate buffer, pH 4, aqueous buffer, 50 mM sodium citrate, pH (initial) 4.0, RT, 24 h
  solubility at 24 h: 9800 µg/mL
[3]; 50 mM sodium citrate buffer, pH 6, aqueous buffer, 50 mM sodium citrate, pH (initial) 6.0, RT, 24 h
  solubility at 24 h: 80 µg/mL
[3]; [8]
  pH (final): 5.4
  Remaining Solid: Form B
[3]; 50 mM sodium citrate, pH (initial) 4.0, RT, 24 h, trihydrate
  Solubility: 9700 µg/mL
[3]; [9]
  pH (final): 6.0
  Remaining Solid: Form B
[3]; Water (unbuffered), RT, 24 h
  pH (final): 5.6
  Remaining Solid: Form B
[3]; unbuffered water, water, RT
  solubility at 24 h: 1.2 µg/mL
[3]; unbuffered water, water, Water (unbuffered), RT, 24 h
  solubility at 24 h: 1.2 µg/mL
[4]; Acetone
  Remaining Solid: Form B
  solubility at 24 h: 23900 µg/mL
[4]; Acetonitrile
  Remaining Solid: Form B
  solubility at 24 h: 1500 µg/mL
[4]; Ethanol
  Remaining Solid: No solid obtained
  solubility at 24 h: > 87000 µg/mL
[4]; Isopropanol
  Remaining Solid: No solid obtained
  solubility at 24 h: > 129000 µg/mL
[4]; MeOH, EtOH, and IPA
  solubility (in words): quite soluble
[4]; Methanol
  Remaining Solid: No solid obtained
  solubility at 24 h: > 200000 µg/mL
